Measurements as given in patent US12643881B2, “Bicyclic amine CDK12 inhibitors” (Incyte Corporation, priority 2021, dated 2026).

Each compound was assayed against T1, CDK12 complexed with Cyclin K (Homo sapiens, UniProt Q9NYV4) (assay: Alternative CDK Enzymatic Assays (HTRF, pre-incubation with compounds and 1 mM ATP), Example A2). Conditions: enzyme pre-incubated with compounds and 1 mM ATP for 60 minutes; reaction 120 minutes at 25° C.
T1 construct: GST (N)
Type: biochemical
Excerpt: Example A2. Alternative CDK Enzymatic Assays
The following activity of the CDK enzymes in complex with their respective cyclins we assayed: CDK1 complexed with Cyclin B1; CDK2 complexed with Cyclin E1; CDK4 complexed with Cyclin D1; CDK6 complexed with Cyclin D1; CDK6 complexed with Cyclin D3; CDK9 complexed with Cyclin T1; CDK7 complexed with Cyclin H/MAT1; CDK2 complexed with Cyclin A2; CDK5 complexed with p35; CDK12 complexed with Cyclin K; CDK13 complexed with Cyclin K. These in vitro enzyme activity are assayed using homogeneous time-resolved energy transfer (HTRF), which measures phosphorylation of a peptide substrate. The LANCER Ultra kinase assay (PerkinElmer) uses a ULight™-labeled EIF4E-binding protein 1 (THR37/46) peptide (DYSTTPGGTLFSTTPGTRI (SEQ ID NO: 1)) substrate and a Europium-labeled anti-phospho-4E-BP1 antibody (CDK2, CDK1, CDK4, CDK6, CDK9, CDK12, CDK13) or ULight™-labeled Myelin Basic Protein peptide (VTPRTPPP (SEQ ID NO: 2)) substrate and a Europium-labeled anti-phospho-MBP antibody (CDK7). Each CDK enzyme activity assays utilized human CDK co-expressed as N-terminal GST-tagged protein with its full length cyclin partner using a baculovirus expression system.
Enzyme was pre-incubated with compounds and 1 mM ATP for 60 minutes (CDK 1, 2, 4, 6, 9, 7, 12, 13) prior to the addition of ATP and Ulight-peptide (1 mM and 50 nM final, respectively), in assay buffer containing 50 mM HEPES pH 7.5, 1 mM EGTA, 10 mM MgCl2, 2 mM DTT, 0.05 mg/mL BSA, and 0.01% Tween 20. The reaction was then incubated for 120 minutes at 25° C. incubator. The reactions were stopped by the addition of EDTA and Europium labeled antibody, for a final concentration of 15 mM and 0.5-1.5 nM, respectively. HTRF signals were read after 15-120 minutes. A ratio of fluorescence transferred to the labeled substrate (665 nm) relative to fluorescence of the Europium donor (620 nm) represents the extent of phosphorylation. Ratios for treated wells were normalized to DMSO only (100% activity) and no enzyme (0% activity) controls. Normalized data was analyzed using a three or four parameter dose response curve to determine IC50 for each compound and are shown in Table B. Control reference inhibitors were included on each plate.

T1 sequence (Q9NYV4 whole entry): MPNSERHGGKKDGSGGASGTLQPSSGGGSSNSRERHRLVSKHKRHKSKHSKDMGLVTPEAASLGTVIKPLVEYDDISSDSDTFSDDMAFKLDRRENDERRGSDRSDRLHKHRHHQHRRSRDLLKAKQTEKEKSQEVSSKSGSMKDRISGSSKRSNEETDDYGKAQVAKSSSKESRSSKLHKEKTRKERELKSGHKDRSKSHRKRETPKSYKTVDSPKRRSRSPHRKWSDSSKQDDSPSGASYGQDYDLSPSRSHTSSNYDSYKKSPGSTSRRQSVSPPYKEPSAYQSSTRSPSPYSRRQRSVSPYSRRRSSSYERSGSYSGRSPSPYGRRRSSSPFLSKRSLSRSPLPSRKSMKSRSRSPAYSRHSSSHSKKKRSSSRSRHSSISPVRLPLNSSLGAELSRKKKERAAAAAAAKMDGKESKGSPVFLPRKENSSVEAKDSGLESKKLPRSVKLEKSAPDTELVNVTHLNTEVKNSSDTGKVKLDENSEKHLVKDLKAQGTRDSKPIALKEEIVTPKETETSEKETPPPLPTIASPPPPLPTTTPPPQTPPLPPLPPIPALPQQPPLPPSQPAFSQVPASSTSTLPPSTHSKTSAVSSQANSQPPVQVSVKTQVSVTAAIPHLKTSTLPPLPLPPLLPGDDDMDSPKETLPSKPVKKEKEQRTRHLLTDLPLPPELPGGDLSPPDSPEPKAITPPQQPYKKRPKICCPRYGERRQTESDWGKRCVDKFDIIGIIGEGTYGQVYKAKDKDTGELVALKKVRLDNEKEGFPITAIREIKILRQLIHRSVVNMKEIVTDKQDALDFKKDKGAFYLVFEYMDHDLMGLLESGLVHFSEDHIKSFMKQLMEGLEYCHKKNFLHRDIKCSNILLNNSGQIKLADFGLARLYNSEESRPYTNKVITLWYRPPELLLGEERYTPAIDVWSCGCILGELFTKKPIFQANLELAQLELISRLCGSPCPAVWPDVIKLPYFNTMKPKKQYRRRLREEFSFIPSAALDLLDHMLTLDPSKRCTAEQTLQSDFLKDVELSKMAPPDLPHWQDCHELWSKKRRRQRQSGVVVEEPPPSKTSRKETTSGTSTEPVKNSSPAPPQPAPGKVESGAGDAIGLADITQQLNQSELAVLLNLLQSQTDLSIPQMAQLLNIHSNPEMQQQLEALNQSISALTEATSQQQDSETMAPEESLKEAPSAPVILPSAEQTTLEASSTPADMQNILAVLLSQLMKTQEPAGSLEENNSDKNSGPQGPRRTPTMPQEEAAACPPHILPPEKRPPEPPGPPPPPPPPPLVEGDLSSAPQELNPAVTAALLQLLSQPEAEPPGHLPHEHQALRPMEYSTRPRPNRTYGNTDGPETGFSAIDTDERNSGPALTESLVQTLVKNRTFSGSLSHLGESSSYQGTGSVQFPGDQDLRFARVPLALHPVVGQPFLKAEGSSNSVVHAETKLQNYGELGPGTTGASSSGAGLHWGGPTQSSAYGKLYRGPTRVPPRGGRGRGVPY
T1 sequence (O75909 whole entry partner): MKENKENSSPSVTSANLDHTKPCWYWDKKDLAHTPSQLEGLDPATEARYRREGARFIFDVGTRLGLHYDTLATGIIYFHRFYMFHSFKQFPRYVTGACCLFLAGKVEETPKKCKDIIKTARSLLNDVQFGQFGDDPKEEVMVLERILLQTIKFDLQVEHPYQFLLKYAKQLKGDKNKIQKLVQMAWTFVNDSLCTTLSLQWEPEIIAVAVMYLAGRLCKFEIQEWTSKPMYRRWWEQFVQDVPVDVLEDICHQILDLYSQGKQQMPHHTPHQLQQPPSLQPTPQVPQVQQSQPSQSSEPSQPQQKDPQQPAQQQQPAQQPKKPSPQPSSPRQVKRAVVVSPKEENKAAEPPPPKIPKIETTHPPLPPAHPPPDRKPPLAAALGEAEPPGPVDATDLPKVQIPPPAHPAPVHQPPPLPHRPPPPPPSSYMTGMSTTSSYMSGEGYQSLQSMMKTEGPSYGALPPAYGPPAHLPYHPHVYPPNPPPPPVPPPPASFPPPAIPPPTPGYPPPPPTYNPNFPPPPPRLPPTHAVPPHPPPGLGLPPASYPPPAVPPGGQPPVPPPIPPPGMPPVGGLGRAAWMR

How did the IC50 turn out when `C=CC(=O)N1C[C@@H]2C[C@H]1CN2c1nccn2c(N3C[C@H](F)C[C@@H](Nc4ncc(C(F)(F)F)cn4)C3)ncc12` [Example 107, 1-((1S,4S)-5-(3-((3R,5R)-3-Fluoro-5-((5-(trifluoromethyl)pyrimidin-2-yl)amino)piperidin-1-yl)imidazo[1,5-a]pyrazin-8-yl)-2,5-diazabicyclo[2.2.1]heptan-2-yl)prop-2-en-1-one] was run?
Its IC50 is 50 to 500 nM.

With `C=CC(=O)N1CCCCC1c1nccn2c(N3CCC[C@@H](Nc4ncc(C(F)(F)F)cn4)C3)ncc12` (stereo partly drawn) [Example 108, 1-(2-(3-((R)-3-((5-(Trifluoromethyl)pyrimidin-2-yl)amino)piperidin-1-yl)imidazo[1,5-a]pyrazin-8-yl)piperidin-1-yl)prop-2-en-1-one] as the compound, how does the IC50 read?
Its IC50 is 50 to 500 nM.

For `C=CC(=O)N1CCC(c2nccn3c(N4CCC[C@@H](Nc5ncc(C(F)(F)F)cn5)C4)ncc23)CC1` [Example 110, (R)-1-(4-(3-(3-((5-(Trifluoromethyl)pyrimidin-2-yl)amino)piperidin-1-yl)imidazo[1,5-a]pyrazin-8-yl)piperidin-1-yl)prop-2-en-1-one], which IC50 is on record?
Its IC50 is 50 to 500 nM.

How did the IC50 turn out when `C=CC(=O)Nc1cc2nc(N3C[C@H](Nc4ncc(C(F)(F)F)cn4)C[C@@H](OC)C3)n(C)c2cc1C` [Example 111, N-(2-((3R,5R)-3-Methoxy-5-((5-(trifluoromethyl)pyrimidin-2-yl)amino)piperidin-1-yl)-1,6-dimethyl-1H-benzo[d]imidazol-5-yl)acrylamide] was run?
Its IC50 is 50 to 500 nM.

`Cc1cc2c(cc1NC(=O)/C=C/C(C)(C)O)nc(N1C[C@H](F)C[C@@H](Nc3ncc(C(F)(F)F)cn3)C1)n2C` [Example 112, (E)-N-(2-((3R,5R)-3-Fluoro-5-((5-(trifluoromethyl)pyrimidin-2-yl)amino)piperidin-1-yl)-1,6-dimethyl-1H-benzo[d]imidazol-5-yl)-4-hydroxy-4-methylpent-2-enamide] was tested. Which IC50 did it give?
The IC50 was over 500 nM.

With `Cc1cc2c(cc1NC(=O)C#CC(C)(C)O)nc(N1C[C@H](F)C[C@@H](Nc3ncc(C(F)(F)F)cn3)C1)n2C` [Example 113, N-(2-((3R,5R)-3-Fluoro-5-((5-(trifluoromethyl)pyrimidin-2-yl)amino)piperidin-1-yl)-1,6-dimethyl-1H-benzo[d]imidazol-5-yl)-4-hydroxy-4-methylpent-2-ynamide] as the compound, how does the IC50 read?
Its IC50 is under 50 nM.

How did the IC50 turn out when `COCC#CC(=O)Nc1cc2nc(N3C[C@H](F)C[C@@H](Nc4ncc(C(F)(F)F)cn4)C3)n(C)c2cc1C` [Example 114, N-(2-((3R,5R)-3-Fluoro-5-((5-(trifluoromethyl)pyrimidin-2-yl)amino)piperidin-1-yl)-1,6-dimethyl-1H-benzo[d]imidazol-5-yl)-4-methoxybut-2-ynamide] was run?
The IC50 was under 50 nM.

For `Cc1cc2c(cc1NC(=O)C#CCO)nc(N1C[C@H](F)C[C@@H](Nc3ncc(C(F)(F)F)cn3)C1)n2C` [Example 115, N-(2-((3R,5R)-3-Fluoro-5-((5-(trifluoromethyl)pyrimidin-2-yl)amino)piperidin-1-yl)-1,6-dimethyl-1H-benzo[d]imidazol-5-yl)-4-hydroxybut-2-ynamide], which IC50 is on record?
Its IC50 is under 50 nM.

Which IC50 does the source give for `CC#CC(=O)Nc1cc2nc(N3C[C@H](F)C[C@@H](Nc4ncc(C(F)(F)F)cn4)C3)n(C)c2cc1C` [Example 116, N-(2-((3R,5R)-3-Fluoro-5-((5-(trifluoromethyl)pyrimidin-2-yl)amino)piperidin-1-yl)-1,6-dimethyl-1H-benzo[d]imidazol-5-yl)but-2-ynamide] here?
The IC50 was 50 to 500 nM.

With `C=C(F)C(=O)Nc1cc2nc(N3C[C@H](F)C[C@@H](Nc4ncc(C(F)(F)F)cn4)C3)n(C)c2cc1C` [Example 117, 2-Fluoro-N-(2-((3R,5R)-3-fluoro-5-((5-(trifluoromethyl)pyrimidin-2-yl)amino)piperidin-1-yl)-1,6-dimethyl-1H-benzo[d]imidazol-5-yl)acrylamide] as the compound, how does the IC50 read?
Its IC50 is 50 to 500 nM.

For `Cc1cc2c(cc1NC(=O)/C=C/CN1CCCCC1)nc(N1C[C@H](F)C[C@@H](Nc3ncc(C(F)(F)F)cn3)C1)n2C` [Example 118, (E)-N-(2-((3R,5R)-3-Fluoro-5-((5-(trifluoromethyl)pyrimidin-2-yl)amino)piperidin-1-yl)-1,6-dimethyl-1H-benzo[d]imidazol-5-yl)-4-(piperidin-1-yl)but-2-enamide], which IC50 is on record?
Its IC50 is over 500 nM.

`Cc1cc2c(cc1NC(=O)/C=C\CN(C)C)nc(N1C[C@H](F)C[C@@H](Nc3ncc(C(F)(F)F)cn3)C1)n2C` [Example 119, (Z)-4-(Dimethylamino)-N-(2-((3R,5R)-3-fluoro-5-((5-(trifluoromethyl)pyrimidin-2-yl)amino)piperidin-1-yl)-1,6-dimethyl-1H-benzo[d]imidazol-5-yl)but-2-enamide] was tested. Which IC50 did it give?
The IC50 was over 500 nM.

Which IC50 does the source give for `Cc1cc2c(cc1NC(=O)/C=C/CN(C)C)nc(N1C[C@H](F)C[C@@H](Nc3ncc(C(F)(F)F)cn3)C1)n2C` [Example 120, (E)-4-(Dimethylamino)-N-(2-((3R,5R)-3-fluoro-5-((5-(trifluoromethyl)pyrimidin-2-yl)amino)piperidin-1-yl)-1,6-dimethyl-1H-benzo[d]imidazol-5-yl)but-2-enamide] here?
The IC50 was over 500 nM.

Which IC50 does the source give for `COC/C=C/C(=O)Nc1cc2nc(N3C[C@H](F)C[C@@H](Nc4ncc(C(F)(F)F)cn4)C3)n(C)c2cc1C` [Example 121, (E)-N-(2-((3R,5R)-3-Fluoro-5-((5-(trifluoromethyl)pyrimidin-2-yl)amino)piperidin-1-yl)-1,6-dimethyl-1H-benzo[d]imidazol-5-yl)-4-methoxybut-2-enamide] here?
Its IC50 is 50 to 500 nM.

With `C=CC(=O)Nc1ccc2c(c1)nc(N1C[C@H](O)C[C@@H](Nc3ncc(C#N)cn3)C1)n2C` [Example 122, N-(2-((3R,5R)-3-((5-Cyanopyrimidin-2-yl)amino)-5-hydroxypiperidin-1-yl)-1-methyl-1H-benzo[d]imidazol-5-yl)acrylamide] as the compound, how does the IC50 read?
Its IC50 is under 50 nM.

Which IC50 does the source give for `C=CC(=O)Nc1ccc2c(c1)nc(N1CCC[C@@H](Nc3ncc(C(F)(F)F)cn3)C1)n2C` [Example 123, (R)—N-(1-Methyl-2-(3-((5-(trifluoromethyl)pyrimidin-2-yl)amino)piperidin-1-yl)-1H-benzo[d]imidazol-5-yl)acrylamide] here?
The IC50 was under 50 nM.

`C=CC(=O)Nc1ccc2c(c1)nc(N1C[C@H](Nc3ncc(C(F)(F)F)cn3)CC(F)(F)C1)n2C` [Example 124, (R)—N-(2-(3,3-Difluoro-5-((5-(trifluoromethyl)pyrimidin-2-yl)amino)piperidin-1-yl)-1-methyl-1H-benzo[d]imidazol-5-yl)acrylamide] was tested. Which IC50 did it give?
The IC50 was under 50 nM.

For `C=CC(=O)Nc1ccc2c(c1)nc(N1CC[C@@H](F)[C@@H](Nc3ncc(C#N)cn3)C1)n2C` [Example 125, N-(2-((3S,4R)-3-((5-Cyanopyrimidin-2-yl)amino)-4-fluoropiperidin-1-yl)-1-methyl-1H-benzo[d]imidazol-5-yl)acrylamide], which IC50 is on record?
Its IC50 is under 50 nM.

For `C=CC(=O)Nc1ccc2c(c1)nc(N1CC[C@H](F)[C@@H](Nc3ncc(C#N)cn3)C1)n2C` [Example 126, N-(2-((3S,4S)-3-((5-Cyanopyrimidin-2-yl)amino)-4-fluoropiperidin-1-yl)-1-methyl-1H-benzo[d]imidazol-5-yl)acrylamide], which IC50 is on record?
The IC50 was under 50 nM.

For `C=CC(=O)Nc1ccc2c(c1)nc(N1CCC(F)(F)[C@@H](Nc3ncc(C#N)cn3)C1)n2C` [Example 127, (S)—N-(2-(3-((5-Cyanopyrimidin-2-yl)amino)-4,4-difluoropiperidin-1-yl)-1-methyl-1H-benzo[d]imidazol-5-yl)acrylamide], which IC50 is on record?
The IC50 was under 50 nM.

How did the IC50 turn out when `C=CC(=O)N1CCN(c2ccc3c(c2)nc(N2CCC[C@@H](Nc4ncc(C(F)(F)F)cn4)C2)n3C)CC1` [Example 128, (R)-1-(4-(1-Methyl-2-(3-((5-(trifluoromethyl)pyrimidin-2-yl)amino)piperidin-1-yl)-1H-benzo[d]imidazol-5-yl)piperazin-1-yl)prop-2-en-1-one] was run?
The IC50 was 50 to 500 nM.

Which IC50 does the source give for `C=CC(=O)Nc1ccc2c(c1)nc(N1CCC[C@@H](Nc3ncc(C#N)s3)C1)n2C` [Example 129, (R)—N-(2-(3-((5-Cyanothiazol-2-yl)amino)piperidin-1-yl)-1-methyl-1H-benzo[d]imidazol-5-yl)acrylamide] here?
Its IC50 is under 50 nM.

For `C=CC(=O)Nc1ccc2c(c1)nc(N1CCC[C@@H](Nc3ncc(C(F)(F)F)s3)C1)n2C` [Example 130, (R)—N-(1-Methyl-2-(3-((5-(trifluoromethyl)thiazol-2-yl)amino)piperidin-1-yl)-1H-benzo[d]imidazol-5-yl)acrylamide], which IC50 is on record?
The IC50 was under 50 nM.

With `C=CC(=O)Nc1cc2nc(N3C[C@H](F)C[C@@H](Nc4ncc(C(F)(F)F)cn4)C3)n(C)c2cc1CC` [Example 131, N-(6-Ethyl-2-((3R,5R)-3-fluoro-5-((5-(trifluoromethyl)pyrimidin-2-yl)amino)piperidin-1-yl)-1-methyl-1H-benzo[d]imidazol-5-yl)acrylamide] as the compound, how does the IC50 read?
The IC50 was 50 to 500 nM.
